24 molecules from patent US12110294B2, “CD73 compounds” (Gilead Sciences, Inc., priority 2020, dated 2024) can be followed below.

For the test, the target named is T1, CD73 activity in MDA-MB-231-GFP cells (Homo sapiens, UniProt P21589).
T1 construct: endogenous in cells; host or cells: MDA-MB-231-GFP cells
T1 sequence (P21589 27-549): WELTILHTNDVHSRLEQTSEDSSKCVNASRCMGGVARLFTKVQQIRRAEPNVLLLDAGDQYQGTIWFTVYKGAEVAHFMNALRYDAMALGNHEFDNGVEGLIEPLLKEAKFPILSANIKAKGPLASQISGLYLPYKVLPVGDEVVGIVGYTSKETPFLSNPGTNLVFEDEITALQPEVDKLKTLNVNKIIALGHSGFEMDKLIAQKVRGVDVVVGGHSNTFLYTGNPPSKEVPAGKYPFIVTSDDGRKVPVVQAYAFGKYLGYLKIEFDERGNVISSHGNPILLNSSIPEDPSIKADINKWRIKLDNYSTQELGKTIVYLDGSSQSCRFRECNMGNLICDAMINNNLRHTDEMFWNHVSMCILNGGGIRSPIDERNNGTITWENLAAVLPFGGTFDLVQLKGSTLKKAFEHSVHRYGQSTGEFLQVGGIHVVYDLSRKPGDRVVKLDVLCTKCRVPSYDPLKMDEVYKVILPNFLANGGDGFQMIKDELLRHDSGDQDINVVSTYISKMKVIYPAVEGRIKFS
Kind of test: MDA-MB-231 Cell Based CD73 Activity Assay (DMEM). The note with it: 3000 cells per well, DMEM medium with 10% human plasma, overnight compound treatment, AMP 200 uM. Here is the method: MDA-MB-231 Cell Based CD73 Activity Assay (DMEM) MDA-MB-231-GFP cells were seeded in 384-well plates (Greiner 781946) at a density of 3000 cells per well in 50 μL of DMEM medium with 10% HP (human plasma). Cells were plated into assay plate with compounds pre-spotted, for an overnight compound treatment. 50 uL of 400 uM AMP (final concentration will be 200 uM) was added using Bio-tek dispenser. Plates were incubated for 100 mins. […] The samples were analyzed using Rapid fire.

With `O=C(c1cccc([C@H]2C[C@@H]2c2cc(-c3c[nH]c(=O)[nH]c3=O)nn3ccnc23)c1)N1CCC1` (racemic) [Example 294, 5-(8-((2S,2S)-2-(3-(azetidine-1-carbonyl)phenyl)cyclopropyl)imidazo[1,2-b]pyridazin-6-yl)pyrimidine-2,4(1H,3H)-dione], the EC50 (commonly the concentration that produces a half-maximal response) was determined as 1.32 nM.

The molecule `CC1CN(C(=O)c2cccc([C@H]3C[C@@H]3c3cc(-c4c[nH]c(=O)[nH]c4=O)nn4ccnc34)c2)C1` (racemic) [Example 295, 5-(8-((1S,2S)-2-(3-(3-methylazetidine-1-carbonyl)phenyl)cyclopropyl)imidazo[1,2-b]pyridazin-6-yl)pyrimidine-2,4(1H,3H)-dione] registered an EC50 of 1.97 nM.

`O=C(c1cccc([C@H]2C[C@@H]2c2cc(-c3c[nH]c(=O)[nH]c3=O)nn3ccnc23)c1)N1CC(C(F)(F)F)C1` (racemic) [Example 296, 5-(8-((2S,2S)-2-(3-(3-(trifluoromethyl)azetidine-1-carbonyl)phenyl)cyclopropyl)imidazo[1,2-b]pyridazin-6-yl)pyrimidine-2,4(1H,3H)-dione]: the concentration giving a half-maximal response (EC50) worked out at 4.38 nM.

Regarding `O=C(c1cccc([C@H]2C[C@@H]2c2cc(-c3c[nH]c(=O)[nH]c3=O)nn3ccnc23)c1)N1CC(F)(F)C1` (racemic) [Example 297, 5-(8-((2S,2S)-2-(3-(3,3-difluoroazetidine-1-carbonyl)phenyl)cyclopropyl)imidazo[1,2-b]pyridazin-6-yl)pyrimidine-2,4(1H,3H)-dione], the response was half-maximal at 1.31 nM (EC50).

For `CC1(C)CN(C(=O)c2cccc([C@H]3C[C@@H]3c3cc(-c4c[nH]c(=O)[nH]c4=O)nn4ccnc34)c2)C1` (racemic) [Example 298, 5-(8-((2S,2S)-2-(3-(3,3-dimethylazetidine-1-carbonyl)phenyl)cyclopropyl)imidazo[1,2-b]pyridazin-6-yl)pyrimidine-2,4(1H,3H)-dione], the midpoint of the response, the EC50, lay at 2.81 nM.

`O=C(c1ccc([C@H]2C[C@@H]2c2cc(-c3c[nH]c(=O)[nH]c3=O)nn3ccnc23)cc1)N1C[C@@H](F)[C@H](F)C1` (racemic) [Example 299]: the response was half-maximal at 24.5 nM (EC50).

Molecule `O=C(c1cccc([C@H]2C[C@@H]2c2cc(-c3c[nH]c(=O)[nH]c3=O)nn3ccnc23)c1)N1C[C@@H](F)[C@H](F)C1` (racemic) [Example 300, 5-(8-((2S,2S)-2-(3-((3R,4R)-3,4-difluoropyrrolidine-1-carbonyl)phenyl)cyclopropyl)imidazo[1,2-b]pyridazin-6-yl)pyrimidine-2,4(1H,3H)-dione] registered an EC50 of 1.34 nM.

`O=C(c1ccc([C@H]2C[C@@H]2c2cc(-c3c[nH]c(=O)[nH]c3=O)nn3ccnc23)cc1)N1C[C@@H](F)[C@@H](F)C1` (racemic) [Example 301, 5-(8-((2S,2S)-2-(4-((3S,4R)-3,4-difluoropyrrolidine-1-carbonyl)phenyl)cyclopropyl)imidazo[1,2-b]pyridazin-6-yl)pyrimidine-2,4(1H,3H)-dione]: it took 19.2 nM to reach a half-maximal effect (EC50).

As for `O=C(c1cccc([C@H]2C[C@@H]2c2cc(-c3c[nH]c(=O)[nH]c3=O)nn3ccnc23)c1)N1C[C@@H](F)[C@@H](F)C1` (racemic) [Example 302, 5-(8-((2S,2S)-2-(3-((3S,4R)-3,4-difluoropyrrolidine-1-carbonyl)phenyl)cyclopropyl)imidazo[1,2-b]pyridazin-6-yl)pyrimidine-2,4(1H,3H)-dione], the EC50 is 6.99 nM.

The molecule `O=C(c1ccc([C@H]2C[C@@H]2c2cc(-c3c[nH]c(=O)[nH]c3=O)nn3ccnc23)cc1)N1CC(F)(F)C(F)(F)C1` (racemic) [Example 303, 5-(8-((1S,2S)-2-(4-(3,3,4,4-tetrafluoropyrrolidine-1-carbonyl)phenyl)cyclopropyl)imidazo[1,2-b]pyridazin-6-yl)pyrimidine-2,4(1H,3H)-dione] displayed an EC50 of 27.7 nM.

The molecule `O=C(c1cccc([C@H]2C[C@@H]2c2cc(-c3c[nH]c(=O)[nH]c3=O)nn3ccnc23)c1)N1CC(F)(F)C(F)(F)C1` (racemic) [Example 304, 5-(8-((2S,2S)-2-(3-(3,3,4,4-tetrafluoropyrrolidine-1-carbonyl)phenyl)cyclopropyl)imidazo[1,2-b]pyridazin-6-yl)pyrimidine-2,4(1H,3H)-dione] yielded an EC50 of 3.04 nM.

Molecule `O=C(c1ccc([C@H]2C[C@@H]2c2cc(-c3c[nH]c(=O)[nH]c3=O)nn3ccnc23)cc1)N1CCC(F)(F)C1` (racemic) [Example 305, 5-(8-((2S,2S)-2-(4-(3,3-difluoropyrrolidine-1-carbonyl)phenyl)cyclopropyl)imidazo[1,2-b]pyridazin-6-yl)pyrimidine-2,4(1H,3H)-dione] displayed a half-maximal effective concentration (EC50) of 21.2 nM.

`O=C(c1cccc([C@H]2C[C@@H]2c2cc(-c3c[nH]c(=O)[nH]c3=O)nn3ccnc23)c1)N1CCC(F)(F)C1` (racemic) [Example 306, 5-(8-((2S,2S)-2-(3-(3,3-difluoropyrrolidine-1-carbonyl)phenyl)cyclopropyl)imidazo[1,2-b]pyridazin-6-yl)pyrimidine-2,4(1H,3H)-dione]: the 50% effective concentration (EC50) amounted to 1.41 nM.

Molecule `CC1(C)CCN(C(=O)c2ccc([C@H]3C[C@@H]3c3cc(-c4c[nH]c(=O)[nH]c4=O)nn4ccnc34)cc2)C1` (racemic) [Example 307, 5-(8-((2S,2S)-2-(4-(3,3-dimethylpyrrolidine-1-carbonyl)phenyl)cyclopropyl)imidazo[1,2-b]pyridazin-6-yl)pyrimidine-2,4(1H,3H)-dione] yielded a 50% effective concentration (EC50) of 96.1 nM.

For `CC1(C)CCN(C(=O)c2cccc([C@H]3C[C@@H]3c3cc(-c4c[nH]c(=O)[nH]c4=O)nn4ccnc34)c2)C1` (racemic) [Example 308, 5-(8-((1S,2S)-2-(3-(3,3-dimethylpyrrolidine-1-carbonyl)phenyl)cyclopropyl)imidazo[1,2-b]pyridazin-6-yl)pyrimidine-2,4(1H,3H)-dione], the concentration giving a half-maximal response (EC50) was 6.47 nM.

Consider `O=c1[nH]cc(-c2cc([C@H]3C[C@@H]3c3ccccc3OC(F)(F)F)c3nccn3n2)c(=O)[nH]1` (racemic) [Example 309, 5-(8-((1S,2S)-2-(2-(trifluoromethoxy)phenyl)cyclopropyl)imidazo[1,2-b]pyridazin-6-yl)pyrimidine-2,4(1H,3H)-dione], for which the response was half-maximal at 208 nM (EC50).

Molecule `N#Cc1cncc([C@H]2C[C@@H]2c2cc(-c3c[nH]c(=O)[nH]c3=O)nn3ccnc23)c1` (racemic) [Example 311, 5-((2S,2S)-2-(6-(2,4-dioxo-1,2,3,4-tetrahydropyrimidin-5-yl)imidazo[1,2-b]pyridazin-8-yl)cyclopropyl)nicotinonitrile] registered an EC50 of 11.6 nM.

In the case of `CNC(=O)c1ccc([C@H]2C[C@@H]2c2cc(-c3c[nH]c(=O)[nH]c3=O)nn3c(F)cnc23)cc1` (racemic) [Example 312, 4-((2S,2S)-2-(6-(2,4-dioxo-1,2,3,4-tetrahydropyrimidin-5-yl)-3-fluoroimidazo[1,2-b]pyridazin-8-yl)cyclopropyl)-N-methylbenzamide], a half-maximal response (EC50) required 4.17 nM.

For the molecule `Cc1nc2cc([C@H]3C[C@@H]3c3cc(-c4c[nH]c(=O)[nH]c4=O)nn4ccnc34)ccc2s1` (racemic) [Example 321, 5-(8-((2S,2S)-2-(2-methylbenzo[d]thiazol-5-yl)cyclopropyl)imidazo[1,2-b]pyridazin-6-yl)pyrimidine-2,4(1H,3H)-dione], the half-maximal effective concentration (EC50) is 11.2 nM.

The molecule `Cn1ncc2ccc([C@H]3C[C@@H]3c3cc(-c4c[nH]c(=O)[nH]c4=O)nn4ccnc34)cc21` (racemic) [Example 326, 5-(8-((1S,2S)-2-(1-methyl-1H-indazol-6-yl)cyclopropyl)imidazo[1,2-b]pyridazin-6-yl)pyrimidine-2,4(1H,3H)-dione] returned an EC50 of 2.66 nM.

The molecule `O=c1[nH]cc(-c2cc([C@H]3C[C@@H]3c3ccc(OC(F)(F)F)cc3)c3nccn3n2)c(=O)[nH]1` (racemic) [Example 359, 5-(8-((1S,2S)-2-(4-(trifluoromethoxy)phenyl)cyclopropyl)imidazo[1,2-b]pyridazin-6-yl)pyrimidine-2,4(1H,3H)-dione] came in with an EC50 of 22 nM.

As to `O=c1[nH]cc(-c2cc([C@H]3C[C@@H]3c3ccc(OCC(F)(F)F)cn3)c3nccn3n2)c(=O)[nH]1` (racemic) [Example 363, 5-(8-((1S,2S)-2-(5-(2,2,2-trifluoroethoxy)pyridin-2-yl)cyclopropyl)imidazo[1,2-b]pyridazin-6-yl)pyrimidine-2,4(1H,3H)-dione], the response was half-maximal at 5.5 nM (EC50).

As for `O=c1[nH]cc(-c2cc([C@H]3C[C@@H]3c3ncc(C(F)(F)F)s3)c3nccn3n2)c(=O)[nH]1` (racemic) [Example 364, 5-(8-((1S,2S)-2-(5-(trifluoromethyl)thiazol-2-yl)cyclopropyl)imidazo[1,2-b]pyridazin-6-yl)pyrimidine-2,4(1H,3H)-dione], the concentration for a half-maximal effect (EC50) turned out to be 34 nM.

On to `O=c1[nH]cc(-c2cc([C@H]3C[C@@H]3c3cnn(C(F)(F)F)c3)c3nccn3n2)c(=O)[nH]1` (racemic) [Example 366, 5-(8-((1S,2S)-2-(1-(trifluoromethyl)-1H-pyrazol-4-yl)cyclopropyl)imidazo[1,2-b]pyridazin-6-yl)pyrimidine-2,4(1H,3H)-dione], for which a half-maximal response (EC50) required 16.4 nM.
